Experimental data published in patent publication US20220281899A1, “COMPOUND AND FLUORESCENTLY LABELED BIOLOGICAL SUBSTANCE USING THE SAME” (FUJIFILM Corporation, priority 2019, published 2022).

What was measured:
Assay type in all cases: physicochemical
[1] = Evaluation of water solubility (PBS pH 7.4, UHPLC concentration of filtrate); conditions: compound; PBS pH 7.4, 1% DMSO, 200 μM if completely dissolved
Procedure: 5 μL of a DMSO solution having a concentration of 20 mM of the above compound (hereinafter, referred to as a sample) and 495 μL of PBS having a pH of 7.4 were added and mixed in a 1.5 mL Eppendorf tube and stirred with a multi-shaker MS300 (product name, AS ONE Corporation) at 2,000 rpm for 30 minutes. The obtained mixed solution was allowed to be left for 60 minutes with light shielding and then subjected to centrifugal precipitation (12,000 rpm, 5 minutes). For the filtrate filtered using a filter having a pore diameter of 0.20 μm, the sample concentration was measured with Nexera UHPLC [product name, manufactured by Shimadzu Corporation, column: Shim-pack XR-ODSII] (the sample concentration is 200 μM in a case where the sample is completely dissolved) and evaluated based on the following evaluation standards.
In the present test, it is determined that a compound has passed the evaluation of the water solubility in a case where the compound has a rank “B” or higher.
B: 10 μM or more and less than 100 μM
C: 1 μM or more and less than 10 μM […]
(§1) The water solubility and the fluorescence quantum of the labeled antibody were evaluated according to the same methods as those described in Example 1 except that in the evaluation of the water solubility and the fluorescence quantum yield in Example 1, the sample for measurement was changed from the compound to the labeled antibody.

[2] = Evaluation of light resistance in aqueous solution (xenon lamp exposure, absorbance decrease); conditions: compound; PBS pH 7.4; xenon lamp 22 mW/cm^2
Procedure: The above compound or labeled antibody (hereinafter, referred to as a sample) was dissolved in PBS having a pH of 7.4 so that the absorbance at the absorption wavelength peak was 0.095 to 0.105. In a state of being exposed to light using a merry-go-round type light irradiator, the obtained solution was subjected to the temporal measurement of the absorbance of the absorption wavelength peak of the sample with a spectroscope (manufactured by Agilent Technologies, Inc., product name: Agilent 8453).
For the light exposure using the merry-go-round type light irradiator, a xenon lamp UXL-500D-O (product name) manufactured by Ushio, Inc. was used, and an HA-50 filter and a Y44 filter manufactured by HOYA were used as sharp cut filters (both are product names), where the light exposure intensity was 22 mW/cm^2 (in terms of 500 nm conversion).
The absorbance at the absorption peak wavelength before light exposure was set to 100% and the light exposure time until the absorbance at this absorption peak wavelength decreases by 50% (the absorbance at the absorption peak wavelength reaches 50%) was measured. The results were evaluated based on the following evaluation standards. A high evaluation rank is highly preferable since stability is kept for a long time.
B: 60 hours or more and less than 80 hours
C: 40 hours or more and less than 60 hours
D: 20 hours or more and less than 40 hours […]

[3] = Evaluation of fluorescence quantum yield (PBS solution, pH 7.4); conditions: compound
Procedure: A PBS solution (pH 7.4) of the above compound was evaluated according to the method described in the following reference document.
“A Guide to Recording Fluorescence Quantum Yields” (a HORIBA Scientific document, available from https://www.horiba.com/fileadmin/uploads/Scientific/Documents/Fluorescence/quantumyields trad.pdf)
In the present test, it is preferable that the fluorescence quantum yield satisfies the evaluation rank “B” or higher from the viewpoint of practicality as the fluorescent compound.
B: 0.7 or more and less than 0.9
C: 0.5 or more and less than 0.7
D: 0.3 or more and less than 0.5
F: not evaluable due to low water solubility
as §1

Compound | Water solubility [1] | Light resistance (light exposure time until absorbance at absorption peak reaches 50%) [2] | Fluorescence quantum yield [3]
CC1=CC(C)=[N+]2C1=C(C)c1c(C)cc(C)n1[B-]2(F)F [BODIPY493/503] | C (1 μM or more and less than 10 μM) | F (less than 10 hours) | A (0.9 or more)
Cc1cc(C)n2c1C=C1C=CC(CCC(=O)O)=[N+]1[B-]2(F)F [BODIPY FL] | C (1 μM or more and less than 10 μM) | F (less than 10 hours) | B (0.7 or more and less than 0.9)
